Data taken from the supplement of paper PMC4862054.

Experiments:
Test in all cases: normalised viability (% of control), CellTiter-Blue; higher = more viable cells (about 100 = DMSO control)
Conditions in all cases: incubation time: 72 h
Hs578T = system: Hs578T
In short: (§1)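 Compound dissolved in 5 µl medium was pre-loaded into 384-well plates, and breast cancer cell lines in 20 µl suspension were seeded on top and incubated 72 h. After adding 2.5 µl CellTiter-Blue reagent for 2 h at 37 °C, fluorescence was read at 560/590 nm. Plates were normalised to vehicle (100) and a positive kill control (0), with Z'-factor quality control. Each value is normalised viability at a single listed concentration from the series.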

MDA-MB-468 = system: MDA-MB-468
In short: as §1

MDA-MB-436 = system: MDA-MB-436
In short: as §1

HDQ-P1 [1] = system: HDQ-P1
In short: as §1

HCC1937 = system: HCC1937
In short: as §1

SK-BR-3 = system: SK-BR-3
In short: as §1

HCC1599 = system: HCC1599
In short: as §1

HCC1143 = system: HCC1143
In short: as §1

MDA-MB-231 = system: MDA-MB-231
In short: as §1

CAL-51 [2] = system: CAL-51
In short: as §1

BT-474 = system: BT-474
In short: as §1

CAL-120 = system: CAL-120
In short: as §1

MDA-MB-453 = system: MDA-MB-453
Description: (§2)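 DSRT, CellTiter-Blue viability, 72 h incubation. Signal is normalised to DMSO and benzethonium chloride controls. Value is the normalised response at dose 7.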

HDQ-P1 [3] = system: HDQ-P1; remark: listed apart in the source
Description: as §2

CAL-85-1 = system: CAL-85-1
Description: as §2

CAL-148 = system: CAL-148
Description: as §2

CAL-51 [4] = system: CAL-51; remark: listed apart in the source
Description: as §2

DU-4475 = system: DU-4475
Description: as §2

N#CC[C@H](C1CCCC1)n1cc(-c2ncnc3[nH]ccc23)cn1 [Ruxolitinib]
normalised viability (Hs578T; 10 nM): 108%
normalised viability (Hs578T; 1000 nM): 104%
normalised viability (Hs578T; 10000 nM): 93.5%
normalised viability (MDA-MB-468; 10 nM): 90.5%
normalised viability (MDA-MB-468; 1000 nM): 104%
normalised viability (MDA-MB-468; 10000 nM): 100%
normalised viability (MDA-MB-436; 10 nM): 93.2%
normalised viability (MDA-MB-436; 1000 nM): 112%
normalised viability (MDA-MB-436; 10000 nM): 102%
normalised viability (HDQ-P1 [1]; 3 nM): 84%
normalised viability (HDQ-P1 [1]; 30 nM): 83.6%
normalised viability (HDQ-P1 [1]; 100 nM): 104%
normalised viability (HCC1937; 10 nM): 114%
normalised viability (HCC1937; 1000 nM): 94.1%
normalised viability (HCC1937; 10000 nM): 74%
normalised viability (SK-BR-3; 10 nM): 95.4%
normalised viability (SK-BR-3; 1000 nM): 87.3%
normalised viability (SK-BR-3; 10000 nM): 103%
normalised viability (HCC1599; 10 nM): 114%
normalised viability (HCC1599; 1000 nM): 102%
normalised viability (HCC1599; 10000 nM): 91.1%
normalised viability (HCC1143; 10 nM): 107%
normalised viability (HCC1143; 1000 nM): 107%
normalised viability (HCC1143; 10000 nM): 98.2%
normalised viability (MDA-MB-231; 10 nM): 72.7%
normalised viability (MDA-MB-231; 1000 nM): 101%
normalised viability (MDA-MB-231; 10000 nM): 110%
normalised viability (CAL-51 [2]; 3 nM): 84.6%
normalised viability (CAL-51 [2]; 30 nM): 97%
normalised viability (CAL-51 [2]; 100 nM): 97.4%
normalised viability (BT-474; 10 nM): 108%
normalised viability (BT-474; 1000 nM): 103%
normalised viability (BT-474; 10000 nM): 119%
normalised viability (CAL-120; 10 nM): 102%
normalised viability (CAL-120; 1000 nM): 99%
normalised viability (CAL-120; 10000 nM): 94.5%

CO[C@H]1C[C@@H]2CC[C@@H](C)[C@@](O)(O2)C(=O)C(=O)N2CCCC[C@H]2C(=O)O[C@H]([C@H](C)C[C@@H]2CC[C@@H](OC(=O)C(C)(CO)CO)[C@H](OC)C2)CC(=O)[C@H](C)/C=C(\C)[C@@H](O)[C@@H](OC)C(=O)[C@H](C)C[C@H](C)/C=C/C=C/C=C/1C [Temsirolimus] (100 nM)
normalised viability (MDA-MB-453): 24.9%
normalised viability (HDQ-P1 [3]): 71.8%
normalised viability (CAL-85-1): 53.2%
normalised viability (CAL-148): 37%
normalised viability (CAL-51 [4]): 37.9%
normalised viability (DU-4475): 50.6%

C[C@]1(c2nc3c(C(N)=O)cccc3[nH]2)CCCN1 [Veliparib]
normalised viability (Hs578T; 10 nM): 101%
normalised viability (Hs578T; 1000 nM): 99.9%
normalised viability (Hs578T; 10000 nM): 100%
normalised viability (MDA-MB-468; 10 nM): 113%
normalised viability (MDA-MB-468; 1000 nM): 105%
normalised viability (MDA-MB-468; 10000 nM): 98.9%
normalised viability (MDA-MB-436; 10 nM): 83.3%
normalised viability (MDA-MB-436; 1000 nM): 89.1%
normalised viability (MDA-MB-436; 10000 nM): 84.6%
normalised viability (HDQ-P1 [1]; 3 nM): 85.6%
normalised viability (HDQ-P1 [1]; 30 nM): 93.3%
normalised viability (HDQ-P1 [1]; 100 nM): 95.9%
normalised viability (HCC1937; 10 nM): 72.2%
normalised viability (HCC1937; 1000 nM): 70%
normalised viability (HCC1937; 10000 nM): 61.7%
normalised viability (SK-BR-3; 10 nM): 93.8%
normalised viability (SK-BR-3; 1000 nM): 93.6%
normalised viability (SK-BR-3; 10000 nM): 84.6%
normalised viability (HCC1599; 10 nM): 100%
normalised viability (HCC1599; 1000 nM): 98.3%
normalised viability (HCC1599; 10000 nM): 100%
normalised viability (HCC1143; 10 nM): 66.6%
normalised viability (HCC1143; 1000 nM): 76.4%
normalised viability (HCC1143; 10000 nM): 75.3%
normalised viability (MDA-MB-231; 10 nM): 80.8%
normalised viability (MDA-MB-231; 1000 nM): 90.3%
normalised viability (MDA-MB-231; 10000 nM): 94.8%
normalised viability (CAL-51 [2]; 3 nM): 114%
normalised viability (CAL-51 [2]; 30 nM): 105%
normalised viability (CAL-51 [2]; 100 nM): 106%
normalised viability (BT-474; 10 nM): 101%
normalised viability (BT-474; 1000 nM): 103%
normalised viability (BT-474; 10000 nM): 104%
normalised viability (CAL-120; 10 nM): 81.7%
normalised viability (CAL-120; 1000 nM): 77%
normalised viability (CAL-120; 10000 nM): 70.2%

C=CC[C@@H]1/C=C(\C)C[C@H](C)C[C@H](OC)[C@H]2O[C@@](O)(C(=O)C(=O)N3CCCC[C@H]3C(=O)O[C@H](/C(C)=C/[C@@H]3CC[C@@H](O)[C@H](OC)C3)[C@H](C)[C@@H](O)CC1=O)[C@H](C)C[C@@H]2OC [Tacrolimus]
normalised viability (Hs578T; 10 nM): 104%
normalised viability (Hs578T; 1000 nM): 103%
normalised viability (Hs578T; 10000 nM): 87.8%
normalised viability (MDA-MB-468; 10 nM): 106%
normalised viability (MDA-MB-468; 1000 nM): 118%
normalised viability (MDA-MB-468; 10000 nM): 125%
normalised viability (MDA-MB-436; 10 nM): 116%
normalised viability (MDA-MB-436; 1000 nM): 104%
normalised viability (MDA-MB-436; 10000 nM): 108%
normalised viability (HDQ-P1 [1]; 3 nM): 116%
normalised viability (HDQ-P1 [1]; 30 nM): 120%
normalised viability (HDQ-P1 [1]; 100 nM): 133%
normalised viability (HCC1937; 10 nM): 114%
normalised viability (HCC1937; 1000 nM): 63.1%
normalised viability (HCC1937; 10000 nM): 92.5%
normalised viability (SK-BR-3; 10 nM): 93.5%
normalised viability (SK-BR-3; 1000 nM): 105%
normalised viability (SK-BR-3; 10000 nM): 108%
normalised viability (HCC1599; 10 nM): 109%
normalised viability (HCC1599; 1000 nM): 101%
normalised viability (HCC1599; 10000 nM): 95.5%
normalised viability (HCC1143; 10 nM): 102%
normalised viability (HCC1143; 1000 nM): 118%
normalised viability (HCC1143; 10000 nM): 102%
normalised viability (MDA-MB-231; 10 nM): 109%
normalised viability (MDA-MB-231; 1000 nM): 105%
normalised viability (MDA-MB-231; 10000 nM): 113%
normalised viability (CAL-51 [2]; 3 nM): 108%
normalised viability (CAL-51 [2]; 30 nM): 103%
normalised viability (CAL-51 [2]; 100 nM): 97.7%
normalised viability (BT-474; 10 nM): 125%
normalised viability (BT-474; 1000 nM): 108%
normalised viability (BT-474; 10000 nM): 114%
normalised viability (CAL-120; 10 nM): 106%
normalised viability (CAL-120; 1000 nM): 103%
normalised viability (CAL-120; 10000 nM): 106%

OC[C@H]1O[C@@H](n2cnc3c2N=CNC[C@H]3O)C[C@@H]1O [Pentostatin]
normalised viability (Hs578T; 10 nM): 111%
normalised viability (Hs578T; 1000 nM): 101%
normalised viability (Hs578T; 10000 nM): 105%
normalised viability (MDA-MB-468; 10 nM): 115%
normalised viability (MDA-MB-468; 1000 nM): 99.4%
normalised viability (MDA-MB-468; 10000 nM): 104%
normalised viability (MDA-MB-436; 10 nM): 93.4%
normalised viability (MDA-MB-436; 1000 nM): 88.4%
normalised viability (MDA-MB-436; 10000 nM): 89.5%
normalised viability (HDQ-P1 [1]; 3 nM): 118%
normalised viability (HDQ-P1 [1]; 30 nM): 99%
normalised viability (HDQ-P1 [1]; 100 nM): 100%
normalised viability (HCC1937; 10 nM): 80.3%
normalised viability (HCC1937; 1000 nM): 91.8%
normalised viability (HCC1937; 10000 nM): 84.2%
normalised viability (SK-BR-3; 10 nM): 108%
normalised viability (SK-BR-3; 1000 nM): 104%
normalised viability (SK-BR-3; 10000 nM): 116%
normalised viability (HCC1599; 10 nM): 88.3%
normalised viability (HCC1599; 1000 nM): 92.3%
normalised viability (HCC1599; 10000 nM): 93.4%
normalised viability (HCC1143; 10 nM): 114%
normalised viability (HCC1143; 1000 nM): 103%
normalised viability (HCC1143; 10000 nM): 102%
normalised viability (MDA-MB-231; 10 nM): 98.5%
normalised viability (MDA-MB-231; 1000 nM): 102%
normalised viability (MDA-MB-231; 10000 nM): 108%
normalised viability (CAL-51 [2]; 3 nM): 90.1%
normalised viability (CAL-51 [2]; 30 nM): 85.4%
normalised viability (CAL-51 [2]; 100 nM): 84.2%
normalised viability (BT-474; 10 nM): 116%
normalised viability (BT-474; 1000 nM): 119%
normalised viability (BT-474; 10000 nM): 111%
normalised viability (CAL-120; 10 nM): 115%
normalised viability (CAL-120; 1000 nM): 103%
normalised viability (CAL-120; 10000 nM): 94.4%

Cc1ccc(F)c(NC(=O)Nc2ccc(-c3cccc4[nH]nc(N)c34)cc2)c1 [Linifanib]
normalised viability (Hs578T; 1 nM): 114%
normalised viability (Hs578T; 100 nM): 101%
normalised viability (Hs578T; 1000 nM): 91.3%
normalised viability (MDA-MB-468; 1 nM): 182%
normalised viability (MDA-MB-468; 100 nM): 111%
normalised viability (MDA-MB-468; 1000 nM): 104%
normalised viability (MDA-MB-436; 1 nM): 108%
normalised viability (MDA-MB-436; 100 nM): 110%
normalised viability (MDA-MB-436; 1000 nM): 120%
normalised viability (HDQ-P1 [1]; 0.3 nM): 107%
normalised viability (HDQ-P1 [1]; 3 nM): 111%
normalised viability (HDQ-P1 [1]; 10 nM): 103%
normalised viability (HCC1937; 1 nM): 147%
normalised viability (HCC1937; 100 nM): 93.6%
normalised viability (HCC1937; 1000 nM): 111%
normalised viability (SK-BR-3; 1 nM): 117%
normalised viability (SK-BR-3; 100 nM): 112%
normalised viability (SK-BR-3; 1000 nM): 123%
normalised viability (HCC1599; 1 nM): 109%
normalised viability (HCC1599; 100 nM): 108%
normalised viability (HCC1599; 1000 nM): 109%
normalised viability (HCC1143; 1 nM): 112%
normalised viability (HCC1143; 100 nM): 89%
normalised viability (HCC1143; 1000 nM): 93.9%
normalised viability (MDA-MB-231; 1 nM): 115%
normalised viability (MDA-MB-231; 100 nM): 101%
normalised viability (MDA-MB-231; 1000 nM): 109%
normalised viability (CAL-51 [2]; 0.3 nM): 106%
normalised viability (CAL-51 [2]; 3 nM): 105%
normalised viability (CAL-51 [2]; 10 nM): 107%
normalised viability (BT-474; 1 nM): 113%
normalised viability (BT-474; 100 nM): 108%
normalised viability (BT-474; 1000 nM): 123%
normalised viability (CAL-120; 1 nM): 90.8%
normalised viability (CAL-120; 100 nM): 91.2%
normalised viability (CAL-120; 1000 nM): 109%
